# Laboratory results: US20120077705A1, “Methods for Identifying Autophagy Inducing Compounds” (President and Fellows of Harvard College, priority 2007, published 2012)
# “And” between values parts separate entries of the source, which are not always exact repeats. Equal entries are not always repeated. Where two headings read alike, the source gives them in different places.
# How the values were obtained:
# GFP-polyQ-HA = assay: Degradation of expanded polyglutamine (GFP-polyQ-HA) in transfected H4 cells, anti-HA blot; format: cell-based
# Method: Large-scale accumulation of misfolded protein is a prominent feature of many neurodegenerative diseases. For example, the pathogenic mechanism of Huntington's disease is that a large amount of polyglutamine (polyQ) protein accumulates in the neurons and cannot be cleared away. Tests of polyQ elimination and degradation were used in this experiment to further determine the ability if the tested compounds to induce autophagy.
# The compounds selected through screening were dissolved in DMSO and diluted in a stepwise manner in complete culture medium.
# long-lived proteins = assay: Degradation of (3H) L-leucine labelled long-lived proteins in H4 cells; format: cell-based; settings: relative to blank control
# Description: The process of autophagy is a protein degradation process, which primarily mediates the degradation of cellular organelles and long-lived proteins within the cell. Therefore, in the present experiment the detection of whether a compound promotes the degradation of long-lived proteins within the cell was used as an additional indicator of whether the tested compound induces autophagy.
# DMSO was used to dilute, dissolve, and prepare a compound at different concentrations with each concentration repeated three times. A 96-well plate was inoculated with H4 cells at an appropriate density and treated with the compound for 2, 4, and 24 hours, respectively. […] One day prior to the experiment, cells were inoculated onto a 12-well plate at an appropriate density and cultured under normal conditions (DMEM +10% fetal calf serum). […] Then, a complete medium containing (3H) L-leucine was used to incubate the cells for 24 hours causing the cells to take in isotope-labeled leucine and undertake protein synthesis. After 24 hours, a complete culture medium was substituted and used to incubate the cells for 24 hours to degrade short-lived proteins. After the short-lived proteins had been degraded, a complete culture medium to which the compound had been added was substituted and used to incubate the cells. The radiation intensity of the culture medium was tested at 0, 1, 2, 4, and 24 hours, respectively. At 24 hours, the cells were collected and the intensity of the isotope within the cells was tested, and the percent of long-lived protein degradation relative to the blank control group at different times after the action of the compound was computed. Compounds that increased the degradation of long-lived proteins were selected by means oft-test.
# LC3 II = assay: Western blot of LC3 II in H4-LC cells; format: cell-based
# Description: The autophagosome marker LC3 used in the compound-screening platform was subjected to the foregoing processing in the cytosol. Generally when the new LC3 synthesized within the cell was processed, it became cytosolic soluble LC3 I with molecular weight 18 Kd. […] The quantity of LC3 II content reflects to a certain degree the autophagic activity of a cell. Therefore, by assaying the content of LC3 II in the cell by means of the Western blot method, it is possible to further reflect the effect of the compound on autophagy.
# H4-LC cells at an appropriate density were inoculated onto a 6-well plate, which was treated with a compound for 4 hours, after which the cells were collected and lysed. The protein fraction was harvested and SDS-PAGE was performed. Following electrophoresis separation the proteins were transferred to a membrane, and immunoblot analysis was performed. The cytoskeleton protein, actin, was used as an internal control.
# FYVE-RFP = assay: High-content analysis of FYVE-RFP fluorescence (PI(3)P level) in H4-FYVE cell line; format: cell-based
# Description: Class III PI(3)K Vps34 is a multifunctional protein. On the one hand, it catalyzes the phosphorylation of PI to generate PI(3)P and is of key importance in the endocytic and autophagosome membrane transport processes. At the same time, a compound formed from Vps34/beclin1 is involved in the regulation of autophagy initiation signaling. Therefore, while the autophagy process is taking place, the level of PtdIns(3)P should not be expected to decrease to a significant extent. A FYVE domain is a protein structure domain composed of approximately 70 amino acid residues and containing a zinc finger protein structure; it can bind specifically with PI(3)P. Generally, PI(3)P recruits proteins containing a FYVE domain in order to bind to the membrane of cellular organelles, and participate in protein trafficking and similar processes.
# H4 cells were transfected with the fusion protein FYVP-red fluorescent protein (FYVE-RFP). After transfection, the cells were screened in order to obtain a suitable H4-FYVE cell line to be used as a screening platform to perform high-volume screening of compounds, which thereby indirectly reflected the effect of the compound on autophagy. Compounds which reduced FYVE-RFP fluorescence intensity were eliminated. In this experiment, change in the intensity, fluorescence and distribution of the protein marker FYVE-RFP recruited by PI(3)P before and after treatment with the potential autophagy inducing compound was assayed by high-content microscopic analysis.
# DMSO was used to dilute, dissolve, and prepare a compound at different concentrations with each concentration repeated three times. A 96-well plate was inoculated with H4-FYVE cells at an appropriate density and treated with the compound for 2, 4, and 8 hours, respectively. […] If a compound affected FYVE expression or distribution, then this would be embodied precisely in the image and in the size and intensity of fluorescent spots and other numerical values.
# [1] = system: Ca2+-activated K+ channels; settings: 10-nM penitrem A; cited from earlier work
# H4-LC3 cells = format: cell-based
# Description: H4 cells were transfected with the LC3-GFP fusion protein, thereby creating, screening, and yielding an H4-LC3 cell line as a screening platform in order to perform high-content screening of 480 known bioactive compounds (ICCB known bioactive library, BIOMOL), using the following method. DMSO was used to dilute, dissolve, and prepare a compound at different concentrations with each concentration repeated three times. A 96-well plate was inoculated with H4-LC3 cells at an appropriate density and treated for 24 hours with the compound. […] If a compound affected LC3 expression or distribution, then this would be embodied precisely in the image and in the size and intensity of fluorescent spots and the like numerical values. This experiment was repeated three times, and the 72 compounds for which LC3-GFP fluorescent intensity was more than 50% greater than that of the blank control group in the three experiments were selected for analysis. Based on the number of cells determined through counting, those compounds in which cell death exceeded 30% (in comparison with the control group) were eliminated. The remaining compounds were further studied as candidate molecules.
# [2] = H4 cells transfected with GFP-polyQ-HA, 24 hours, screening concentration and dilutions 1:2.5, 1:5, 1:10, FIG. 2
# [3] = H4-LC cells, 4 hours, immunoblot, FIG. 1
compound,measurement,setting,value
O=c1[nH]c2ccccc2n1C1CCN(CCCC(c2ccc(F)cc2)c2ccc(F)cc2)CC1 [Pimozide],polyQ degradation,GFP-polyQ-HA; [2],increased polyQ degradation
same,Percent relative degradation of long-lived proteins (%),long-lived proteins; 1 h,129.13 ± 11.46%
same,Percent relative degradation of long-lived proteins (%),long-lived proteins; 2 h,155.80 ± 9.22%
same,Percent relative degradation of long-lived proteins (%),long-lived proteins; 4 h,152.01 ± 9.63%
same,Percent relative degradation of long-lived proteins (%),long-lived proteins; 24 h,162.47 ± 3.50%
same,Increase of endogenous LC3 II / LC3 II/LC3 I percentage,LC3 II; [3],increase of endogenous LC3 II
same,Relative fluorescent intensity of FYVE-RFP (%),"FYVE-RFP; H4-FYVE cells, 2 h",94.42 ± 4.71%
same,Relative fluorescent intensity of FYVE-RFP (%),"FYVE-RFP; H4-FYVE cells, 4 h",103.96 ± 9.06%
same,Relative fluorescent intensity of FYVE-RFP (%),"FYVE-RFP; H4-FYVE cells, 8 h",73.64 ± 12.18%
CN1CCN(CCCN2c3ccccc3Sc3ccc(C(F)(F)F)cc32)CC1 [Trifluoperazine],polyQ degradation,GFP-polyQ-HA; [2],increased polyQ degradation
same,Percent relative degradation of long-lived proteins (%),long-lived proteins; 1 h,76.62 ± 2.32%
same,Percent relative degradation of long-lived proteins (%),long-lived proteins; 2 h,105.60 ± 5.01%
same,Percent relative degradation of long-lived proteins (%),long-lived proteins; 4 h,109.00 ± 5.22%
same,Percent relative degradation of long-lived proteins (%),long-lived proteins; 24 h,124.78 ± 2.05%
same,Increase of endogenous LC3 II / LC3 II/LC3 I percentage,LC3 II; [3],increase of endogenous LC3 II
same,Relative fluorescent intensity of FYVE-RFP (%),"FYVE-RFP; H4-FYVE cells, 2 h",136.58 ± 15.74%
same,Relative fluorescent intensity of FYVE-RFP (%),"FYVE-RFP; H4-FYVE cells, 4 h",111.52 ± 13.45%
same,Relative fluorescent intensity of FYVE-RFP (%),"FYVE-RFP; H4-FYVE cells, 8 h",94.28 ± 2.87%
C=C(C)[C@H]1O[C@H]2CC[C@@]3(C)[C@@](O)(CC[C@H]4[C@@H]5OC(C)(C)[C@H]6C[C@@H]7C(=C)Cc8c(Cl)cc9[nH]c(c5c9c8[C@@]76O)[C@@]43C)[C@]23O[C@@H]3[C@H]1O [Penitrem A],Blockage of Ca2+-activated K+ channels,[1],100%
same,polyQ degradation,GFP-polyQ-HA; [2],increased polyQ degradation
same,Percent relative degradation of long-lived proteins (%),long-lived proteins; 1 h,92.88 ± 2.83%
same,Percent relative degradation of long-lived proteins (%),long-lived proteins; 2 h,126.09 ± 0.47%
same,Percent relative degradation of long-lived proteins (%),long-lived proteins; 4 h,132.13 ± 10.01%
same,Percent relative degradation of long-lived proteins (%),long-lived proteins; 24 h,141.83 ± 1.25%
same,Destruction of H4 cells,H4-LC3 cells; H4 cells,does not destroy H4 cells
same,Increase of endogenous LC3 II / LC3 II/LC3 I percentage,LC3 II; [3],increase of endogenous LC3 II
same,Relative fluorescent intensity of FYVE-RFP (%),"FYVE-RFP; H4-FYVE cells, 2 h",121.40 ± 12.66%
same,Relative fluorescent intensity of FYVE-RFP (%),"FYVE-RFP; H4-FYVE cells, 4 h",87.41 ± 5.90%
same,Relative fluorescent intensity of FYVE-RFP (%),"FYVE-RFP; H4-FYVE cells, 8 h",72.71 ± 5.57%
COC(=O)C1=C(C)NC(C)=C(C(=O)OCCCN2CCC(c3ccccc3)(c3ccccc3)CC2)C1c1cccc([N+](=O)[O-])c1.Cl (stereo not shown) [Niguldipine],polyQ degradation,GFP-polyQ-HA,increased polyQ degradation
same,Percent relative degradation of long-lived proteins (%),long-lived proteins; 1 h,71.65 ± 2.68%
same,Percent relative degradation of long-lived proteins (%),long-lived proteins; 2 h,107.42 ± 2.72%
same,Percent relative degradation of long-lived proteins (%),long-lived proteins; 4 h,105.68 ± 2.74%
same,Percent relative degradation of long-lived proteins (%),long-lived proteins; 24 h,117.85 ± 1.98%
same,Relative quantity of cells (%),H4-LC3 cells; human,132.78 ± 18.11%
same,Increase of endogenous LC3 II / LC3 II/LC3 I percentage,LC3 II,increase of endogenous LC3 II
same,Relative fluorescent intensity of FYVE-RFP (%),FYVE-RFP,147.18 ± 25.39% and 148.26 ± 3.67% and 125.53 ± 2.84%
